{
  "source": "paper PMC8708875",
  "about": "(Pharmaceutics, 2021)",
  "key": {"[1]": {"test": "in vitro", "assay_type": "in vitro ADME", "conditions": "other tissue homogenate, mouse kidney crude extract 3 µg, peptide 50 µM, 250 µL TBS (0.025 M Tris-HCl, 0.125 M NaCl), RP-HPLC C18, UV 214 nm, average of three independent determinations, read-out: % of peptide degraded, Kidney Extract (3 µg)", "protocol": "(§1) Peptide hydrolyses were analyzed by reverse phase liquid chromatography (HPLC) using a C18 µBond-pak column (4.6 × 250 mm; Millipore Corp.) with a linear gradient of 5–65% acetonitrile in 0.1% TFA for 20 min at a flow rate of 1 mL/min, and absorbance monitored at a wavelength of 214 nm, as previously described. Cleaved peptide bonds were identified by mass spectrometry sequencing after isolating the cleavage fragments manually after HPLC, as previously described (data not shown). Control enzyme assays were conducted using bradykinin ([…]; 50 µM) as a standard substrate.\n(IGF1) Rev: AGAGGTGTGAAGAC-\n(GLUT4) Rev: CAGCTCCTATGGTGGCG-\nGlyceraldehyde 3-phosphate de- TGCCAGCCTCGTCC 75 BC_085275 hydrogenase (GAPDH) Rev: CAGGCGCCCAATAC-\nFigure S1. Typical experiments to evaluate the enzymatic stability of Ric4 and derivatives on kidney tissue extracts. In order to determine if the peptides investigated herein were substrates of tissue peptidases, 50 μM of each peptide was individually incubated for 20 min in the presence of increas-ing crude kidney tissue extracts (0 µg, 3 µg or 30 µg, as indicated), in a final volume of 250 μl of 0,025 M Tris-HCl, containing 0.125 M NaCl (TBS). Peptide hydrolyses were analyzed by reverse phase liquid chromatography (HPLC) using a C18 µBond-pak column (4.6 x 250 mm; Millipore Corp.) with a linear gradient of 5-65% acetonitrile in 0.1 % TFA for 20 min at a flow rate of 1 mL/min, (1 picture or pasted object on this page, not shown here)"}, "[2]": {"test": "in vitro", "assay_type": "in vitro ADME, mouse", "conditions": "other tissue homogenate; mouse liver crude extract 30 µg; peptide 50 µM; 20 min; 250 µL TBS (0.025 M Tris-HCl, 0.125 M NaCl); RP-HPLC C18, UV 214 nm; average of three independent determinations; read-out: % of peptide degraded, Liver Extract (30 µg)", "protocol": "as §1"}, "[3]": {"system": "neurolysin (Nln)", "test": "Nln (0.1 ng), homogeneous recombinant enzyme"}, "[4]": {"system": "THOP1", "test": "THOP1 (0.1 ng), homogeneous recombinant enzyme"}, "[5]": {"system": "C57BL/6N (WT) mice", "assay_type": "in vivo, mouse", "protocol": "In vivo experiments were conducted with male C57BL/6N (WT) mice 12–16 weeks-old (University of São Paulo Medical School Animal Facility, SP, Brazil). Mice were maintained in individual ventilated cages (Amresco, SP, Brazil), under standardized conditions with an artificial 12 h dark–light cycle, with free access to standard chow (Nuvital Nutrientes S.A., Colombo, PR, Brazil) and drinking water ad libitum. The number of animals used was the minimum necessary to obtain statistically significant results and they were maintained and used in accordance with the guidelines of the National Council for Control of Animal Experiments (CONCEA), following international norms of animal care and maintenance. Thus, we hereby state that all experimental protocols were previously approved by University of São Paulo Ethic committee councils from Biomedical Science Institute (approval number for mice experimentation ICB/USP 22/2017).\nWT mice were fasted for 12 h and blood samples were taken before and at 15, 30, 60, 90, and 120 min after the intraperitoneal (ip) injection of 2 g/kg glucose. Glycemia was measured using a glucometer (Accu-Check Performa, ROCHE, São Paulo, Brazil). Peptides were evaluated to affect glucose uptake either after ip or oral (by gavage) administration. After 20 min glucose was administrated (blood glucose levels reached 400 mg/dL), animals received ip or oral administration of either saline, insulin (0.75 IU/kg), or peptide (Ric2 or Ric4; 600 µg/kg). In addition, a group of animals received oral administration of either water or Ric2 or Ric4 (600 µg/kg). Glycemia was measured as indicated following vehicle, insulin, or peptide administration."}, "[6]": {"system": "differentiated C2C12 cells", "test": "Glucose uptake in C2C12 myotubes", "assay_type": "cell-based, mouse", "conditions": "peptides 100 µM, insulin 100 nM; 30 min, 37 °C; 3H-glucose (1 µCi/mL) or 2-NBDG (80 µM)"}, "[7]": {"test": "crude tissue extract (kidney, 3 µg)", "conditions": "WT mice, up to 20 min"}, "[8]": {"test": "crude tissue extract (liver, 30 µg)", "conditions": "WT mice, up to 20 min"}, "[9]": {"biological_target": "THOP1 (Rattus norvegicus, UniProt P24155)", "sequence (P24155 whole entry)": "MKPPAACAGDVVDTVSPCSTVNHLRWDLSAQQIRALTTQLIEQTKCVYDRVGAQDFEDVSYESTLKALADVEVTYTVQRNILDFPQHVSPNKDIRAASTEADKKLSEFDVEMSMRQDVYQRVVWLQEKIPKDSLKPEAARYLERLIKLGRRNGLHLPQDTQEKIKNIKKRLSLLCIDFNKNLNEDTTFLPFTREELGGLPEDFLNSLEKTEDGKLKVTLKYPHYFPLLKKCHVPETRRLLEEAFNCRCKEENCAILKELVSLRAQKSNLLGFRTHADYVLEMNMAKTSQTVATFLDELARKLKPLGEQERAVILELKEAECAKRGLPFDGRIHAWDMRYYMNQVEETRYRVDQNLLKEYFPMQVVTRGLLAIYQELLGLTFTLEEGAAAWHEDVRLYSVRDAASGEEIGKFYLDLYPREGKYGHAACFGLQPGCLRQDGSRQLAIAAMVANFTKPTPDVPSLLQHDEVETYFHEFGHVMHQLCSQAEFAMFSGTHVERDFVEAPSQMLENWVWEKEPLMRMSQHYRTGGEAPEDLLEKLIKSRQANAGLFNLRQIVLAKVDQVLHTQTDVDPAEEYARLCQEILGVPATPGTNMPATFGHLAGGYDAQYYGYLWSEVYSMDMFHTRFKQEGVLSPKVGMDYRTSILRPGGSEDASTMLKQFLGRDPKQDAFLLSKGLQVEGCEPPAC", "assay_type": "in vitro ADME", "protocol": "as §1"}, "[10]": {"system": "Nln", "assay_type": "in vitro ADME", "protocol": "as §1"}},
  "note": "Where two headings read alike, the source gives them in different places. Square brackets hold non-standard residues; d marks the D form. Ends that are not written are not given here. Peptide text beside a SMILES is read from it.",
  "data": [
    {"compound": "CC(=O)N[C@@H](CC(C)C)C(=O)N[C@@H](C)C(=O)N[C@@H](CO)C(=O)N[C@H](C(=O)N[C@@H](CO)C(=O)N[C@H](C(=O)N[C@H](C(=O)N[C@H](CC(C)C)C(=O)N[C@H](C(=O)N[C@@H](CO)C(=O)N[C@@H](CCCCN)C(=O)N[C@@H](Cc1ccc(O)cc1)C(=O)N[C@@H](CCCNC(=N)N)C(N)=O)[C@@H](C)O)C(C)C)[C@@H](C)O)C(C)C", "note": "[RIC4-16] (Ac-LASVSTV[dL]TSKYR-NH2)", "values": [
      {"measurement": "metabolised at 20 min", "setting": "[1]", "value": 12.5, "unit": "%"},
      {"measurement": "metabolised at 20 min", "setting": "[2]", "value": 26, "unit": "%"}
    ]},
    {"compound": "Ac-LASVSTVLTSKYR-NH2", "values": [
      {"measurement": "not cleaved", "setting": "[3]", "value": "1.18 % of peptide degraded"},
      {"measurement": "not cleaved", "setting": "[4]", "value": "4.55 % of peptide degraded"}
    ]},
    {"compound": "Ac-LASVSTVLTSKYR-NH2 [RIC4-2]", "values": [
      {"measurement": "metabolised at 20 min", "setting": "[1]", "value": 60, "unit": "%"},
      {"measurement": "metabolised at 20 min", "setting": "[2]", "value": 70.2, "unit": "%"}
    ]},
    {"compound": "Ac-LASVSTVLTSKYR-NH2 [Ric4-2, Ric4 derived peptide]", "values": [
      {"measurement": "blood glucose levels in GTT, oral administration", "setting": "[5]; WT mice fasted 12 h, glucose 2 g/kg ip at time zero, peptide 600 µg/kg orally by gavage", "value": "ability to reduce blood glucose levels"}
    ]},
    {"compound": "Ac-LASVSTV[dL]TSKYR-NH2 [Ric4-16, Ric4 derived peptide]", "values": [
      {"measurement": "oral bioavailability", "setting": "[5]; mouse, in vivo, po", "value": "no oral bioavailability"},
      {"measurement": "glucose uptake in differentiated C2C12 cells", "setting": "[6]", "value": "efficiently induced glucose uptake"}
    ]},
    {"compound": "LASVSTVLTSKYR", "values": [
      {"measurement": "not cleaved", "setting": "[3]", "value": "4.69 % of peptide degraded"},
      {"measurement": "cleaved bond", "setting": "[7]", "value": "Leu8-Thr9, first_seen"},
      {"measurement": "not cleaved", "setting": "[4]", "value": "2.22 % of peptide degraded"},
      {"measurement": "cleaved bond", "setting": "[8]", "value": "Leu8-Thr9, first_seen"}
    ]},
    {"compound": "LASVSTVLTSKYR [RIC4]", "values": [
      {"measurement": "metabolised at 20 min", "setting": "[1]", "value": 22.6, "unit": "%"},
      {"measurement": "metabolised at 20 min", "setting": "[2]", "value": 62.4, "unit": "%"}
    ]},
    {"compound": "RPPGFSPFR [Bradykinin]", "values": [
      {"measurement": "% of peptide degraded, THOP1", "setting": "[9]", "value": 11.93, "unit": "%"},
      {"measurement": "% of peptide degraded, Nln", "setting": "[10]", "value": 14.51, "unit": "%"}
    ]}
  ]
}
